# Assay results as given in PubChem BioAssay AID179 (DTP/NCI, 2004).
# The source made the active and inactive calls.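 Rule for the calls: active = compounds giving half or more protection of infected cells from virus-caused growth loss, again on retest; inactive = the rest.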
# Test system: CEM cells HIV-1 protection, formazan growth assay
# Assay: NCI AIDS Antiviral Assay
# Details: for IC50: measured here: growth of uninfected CEM cells
# In short: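 Human CEM cells, uninfected and HIV-1-infected, exposed to five drug concentrations; growth measured by soluble formazan assay and scored as percent protection from infection, with protecting compounds retested.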
Compound,EC50 [µM],IC50 [µM],outcome
CCC[CH2][Sn]([CH2]CCC)([CH2]CCC)/[C](=C/[Si](C)(C)c1ccccc1)c1ccc2c(c1)OCO2,> 3.47,> 3.47,
O=P(c1ccccc1)(c1ccccc1)C(NCc1ccccc1)c1ccc(F)cc1 (stereo not drawn),> 200,12.9,
CSc1n[nH]c2n[nH]c(C)c12,> 200,105,
C=C1CN(S(=O)(=O)c2ccc(C)cc2)CCCN(CCC)CCCN(S(=O)(=O)c2ccc(C)cc2)C1,> 200,2.95,
C[C@@]12[C@H]3CC[C@@H]1[C@H](O)C(=O)N2CC3,> 200,> 200,
CC(CCC#CC(=O)O)OC1CCCCO1 (stereo not drawn),> 200,> 200,
CCOC1(OCC)C2C=CC1C(COS(=O)(=O)c1ccc(C)cc1)C2COS(=O)(=O)c1ccc(C)cc1 (stereo not drawn),> 200,14.1,
Nc1ncc2c(ncn2CCO)n1,> 282,> 282,
O=S(=O)(Nc1nc2ccccc2n1S(=O)(=O)c1ccccc1)c1ccccc1,81.3,97.7,
CCC/C=C/C=C/C(=O)OC1C(C)C2(O)C3C=C(C)C(=O)C3CC(COC(C)=O)=CC2C2C(C)(C)C12OC(=O)C(C)C (stereo not drawn),0.977,1.02,
O=[N+]([O-])O,> 200,> 200,
Nc1ccn(CCNCCn2cnc3nc(N)[nH]c(=O)c32)c(=O)n1,> 8.32,> 8.32,
O=C(NC12CC3CC(CC(C3)C1)C2)C(=O)c1c[nH]c2ccccc12,,,inactive
Oc1ccc(-c2csc(NNC3=NC/C(=C/c4ccc5c(c4)OCO5)S3)n2)cc1O,> 200,64.6,
NC(CC(=O)O)C(=O)NC1Cc2ccccc2C1=O (stereo not drawn),> 200,97.7,
NC(=O)c1cccc(OCC(O)CO)c1 (stereo not drawn),> 200,> 200,
CN(C(=O)c1ccco1)C(=S)N1CCN(c2ccccc2)CC1,> 110,30.2,
CC(/C=C/C(=O)c1sc(C(N)=S)nc1C)=C\c1ccccc1,> 79.4,> 79.4,
NCCCCCCNS(=O)(=O)c1cccc2c(Cl)cccc12,> 200,13.5,
COc1ccccc1/C=C1\S/C(=N/Nc2nc(C)c(C(C)=O)s2)NC1=O,> 200,112,
COC(=O)C(Cc1ccccc1)NP(=O)(O)OCC1OC(n2cc(I)c(=O)[nH]c2=O)CC1O (stereo not drawn),> 200,> 200,
CCNC(=S)NNC(=O)c1csc(NC(=S)NC2CCCCC2)n1,> 200,6.61,

Compound,EC50 [µM],IC50 [µM],outcome
CCN(CC)CCNc1cccc2oc3ccc(OS(=O)(=O)c4ccc(C)cc4)cc3c(=O)c12,> 15.1,6.31,
NS(=O)(=O)c1ccc(NC(=S)/N=C\C(C(=O)c2ccccc2)=C(\O)c2ccccc2)cc1,> 200,105,
C=C1c2nc3ccccc3n2C=C(c2ccccc2)N1c1ccc(OC)cc1,> 200,12.9,
O=C(O)C[C@H]1CCCCC12CCOC2=O (stereo partly drawn),,,inactive
C=C(C)C1CCC2=CC(CC3(C)OC3C3=CC(C(=O)OC)=C(C1)O3)OC2=O (stereo not drawn),> 47.9,> 47.9,
Cc1cc(Cc2c(F)c(F)c(Cc3cc(C)no3)c(F)c2F)on1,> 100,> 100,
CCN(CC)CCCC(C)Nc1cc(-c2ccccc2)nc2ccc(OC)cc12 (stereo not drawn),> 363,2,
COC(=O)[C@@H]1C=C[C@H](OC2OC(COC(C)=O)C(OC(C)=O)C(OC(C)=O)C2OC(C)=O)n2c(=O)n(-c3ccccc3)c(=O)n21 (stereo partly drawn),> 200,1.07,
Cc1cccc(C(C)O)n1 (stereo not drawn),> 200,> 200,
Cc1cc(C)nc(NS(=O)(=O)c2ccc(NC(=O)c3cccc4c(Nc5ccc(S(N)(=O)=O)cc5)c5ccccc5nc34)cc2)n1,> 55,21.9,
COc1cc(/C=C(\C#N)C(=O)c2ccccc2)ccc1O,> 646,490,
Cc1c(Cl)c(=O)oc2cc(OCC(=O)c3ccccc3)ccc12,> 100,> 100,
O=S(=O)(N/N=C/c1ccc(Cl)cc1Cl)c1ccccc1,,,inactive
COc1ccc(/C=C/c2sc3ccccc3[n+]2CCCCI)cc1OC,> 200,7.59,
COc1ccc(C(c2ccccc2C(=O)O)c2ccc(OC)c3ccccc23)c2ccccc12,> 41.7,10.7,
O=C(/C=C/c1ccc(O)c(O)c1)OC(Cc1ccc(O)c(O)c1)C(=O)O (stereo not drawn),> 200,26.3,
O=C(NC1CCCCC1)N1CCNC1=S,> 200,> 200,
O=C1c2ccccc2-c2c1c1ccccc1c(=O)n2Cc1ccco1,> 11.5,> 11.5,
CCCCn1c(-c2ccccc2)cs/c1=N\N=C1C=C(C(C)(C)C)C(=O)C(C(C)(C)C)=C1,> 15.8,> 15.8,
COc1ccc(/C=C2\C(=O)N(C(=O)Cc3ccccc3)N=C2C)cc1OC,> 51.3,> 51.3,
N#C/C(=C\c1ccccc1Cl)C(=O)c1ccccc1,> 132,13.2,
O=C(Nc1ccc(Cl)c(Cl)c1)NC(CO)(CO)CO,> 200,110,

Compound,EC50 [µM],IC50 [µM],outcome
Cc1ccc2c(c1)CC1(Cc3cccc(C)c3C1=O)C2=O (stereo not drawn),> 200,> 200,
COC(=O)CN=C1NC(=S)N(Cc2ccc(OC)cc2)C12CCCC2,> 200,> 200,
CC(=O)SC1CC(=O)C=C2CCC3C4CCC(=O)OC4(C)CCC3C21C (stereo not drawn),> 200,> 200,
Cc1cc(=O)oc2c(CNC(CO)C(=O)O)c(O)ccc12 (stereo not drawn),> 200,> 200,
Clc1ccc(-n2cnn3c(-c4ccccc4)ncc23)cc1,> 100,> 100,
c1ccc2c(c1)oc1cc3c(cc12)nnc1cccn13,> 200,> 200,
C/C(=N/NC(=S)N1CCN(C(=S)N/N=C(/C)c2ccccn2)CC1)c1ccccn1,> 200,3.98,
Cc1ccc(NC(=O)C(=O)Cc2cccc[n+]2[O-])cc1C,> 91.2,> 91.2,
CC(C)n1c(=O)c2nn3c(=O)n(C(C)C)c(=O)c3nn2c1=O,> 200,> 200,
CC(C)C(=O)Nc1nc2nc[nH]c2c(=O)[nH]1,> 85.1,> 85.1,
CC1CC(C#N)=C2NCCN2C1=O (stereo not drawn),> 200,> 200,
S=C1NCCO1,> 200,105,
O=C(Nc1cccc2nsnc12)c1ccc(C(=O)Nc2cccc3nsnc23)cc1,> 22.9,> 22.9,
CC(=O)N=C1N(/C=C2\C(=O)Oc3ccccc3C2=O)C(=O)/C(=C/c2ccc(NC(C)=O)cc2)N1C,> 200,> 200,
NC1=NC2=c3ccccc3=C(c3cnccn3)C2(c2cnccn2)c2ccccc21 (stereo not drawn),> 93.3,70.8,
O=C(NC12CC3CC(CC(C3)C1)C2)C(=O)c1c[nH]c2ccc(Cl)cc12,,,inactive
COc1ccc(N=C(C)c2ccncc2)cc1,> 200,10.5,
Cc1ccc(-c2c(C#N)c(-c3ccc(Cl)cc3)c(C#N)c(=O)n2NS(=O)(=O)c2ccccc2)cc1,> 200,29.5,
NCCSS(=O)(=O)CCN,> 363,,
NS(=O)(=O)c1ccc(NC(=O)c2ccccc2SSc2ccccc2C(=O)Nc2ccc(S(N)(=O)=O)cc2)cc1,2.19,85.1,
Cc1ccccc1/C=C1/N=C(c2ccccc2)OC1=O,> 200,33.1,
N#CC(NC12CC3CC(CC(C3)C1)C2)c1ccc2c(c1)OCO2 (stereo not drawn),,,inactive

Compound,EC50 [µM],IC50 [µM],outcome
Nc1c(S(=O)(=O)O)cc2cc(S(=O)(=O)O)ccc2c1N=Nc1ccc(-c2ccc(N=Nc3c(N)c(S(=O)(=O)O)cc4cc(S(=O)(=O)O)ccc34)c(S(=O)(=O)O)c2)cc1,,,active
CCN(CC)CCNc1nc(N)c(C#N)c(C#N)c1C#N,> 200,174,
CCOC(=O)/C(C#N)=C/c1cccc(Cl)c1,> 79.4,> 79.4,
Cn1c2c(c(=O)n(C)c1=O)C(C(=O)O)CC(=O)N2 (stereo not drawn),> 200,170,
O=C1CCC2=C(CCC2)N1CCc1ccc2c(c1)OCO2,,,inactive
Clc1nc(NC2CCCCC2)nc(NC2CCCCC2)n1,,,inactive
Nc1cccc(S(=O)(=O)N(CC(=O)O)c2ccccc2)c1,,,inactive
Clc1ccc2nc(-c3ccccc3)nc(Cl)c2c1,,,inactive
Cc1cc(NS(=O)(=O)c2ccc(NC(=O)c3ccc4nc5ccccc5c(Nc5ccc(S(=O)(=O)Nc6cc(C)on6)cc5)c4c3)cc2)no1,67.6,> 100,
CCOC(=O)C(C1=C(O)c2ccccc2C(=O)C1=O)C1=C(O)c2ccccc2C(=O)C1=O,> 200,67.6,
O=C1c2ccccc2C(=O)C1(O)c1c[nH]c2ccccc12,> 912,64.6,
O=C(O)c1ccc(NC(NC(=O)C(C(F)(F)F)C(F)(F)F)(C(F)(F)F)C(F)(F)F)cc1,> 200,> 200,
Cc1cc(O)cc(C)c1Cl,162,> 200,
C=CCN(N=O)C(=O)N(CCCCC(NC(C)=O)C(=O)NCc1ccccc1)Cc1ccccc1 (stereo not drawn),> 28.2,> 28.2,
O=C(N/C(=C\c1ccc([N+](=O)[O-])cc1)c1nc2ccccc2[nH]1)c1ccccc1,> 35.5,> 35.5,
CC(=O)OCC(OC(C)=O)C(OC(C)=O)C(OC(C)=O)C(=O)CNn1c(-c2ccccc2Cl)nc2ccccc2c1=O (stereo not drawn),,,inactive
COC(=O)c1c(/C(=N/Nc2ccc([N+](=O)[O-])cc2)[N+](=O)[O-])ssc1=N,> 200,10,
CC(C)(C)N1COCO[C@H]2CCC[C@@H]21,> 525,186,
CC1C(c2ccccc2O)c2cc3c(cc2OC1N1CCOCC1)OCO3 (stereo not drawn),> 200,42.7,
Oc1ccccc1C1C=C(c2ccccc2)NC(N2CCCCC2)=C1c1nc2ccccc2[nH]1 (stereo not drawn),,,inactive
COC1CC(O[C@H]2CC[C@@]3(C)[C@H](CC[C@@H]4[C@@H]3CC[C@]3(C)[C@@H](C5=CC(=O)OC5)[C@@H](OC(C)=O)C[C@]43O)C2)OC(C)C1O (stereo partly drawn),> 0.2,0.0102,
CC(C)(C)SSC(C)(C)C,> 200,> 200,
